Measurements taken from US9499553B2 (CHUGAI SEIYAKU KABUSHIKI KAISHA, priority 2013, dated 2016).
pIC50: −log10 of the molar value.

Assays:
Type in all cases: cell-based
human NaPi-IIb = target: T1, human NaPi-IIb (Homo sapiens, UniProt O95436); assay: Inhibitory effect on 33PO4 uptake into human NaPi-IIb-expressing CHO cells; details: read-out: IC50
T1 construct: expressed in transfected cells
T1 sequence (O95436 1-690): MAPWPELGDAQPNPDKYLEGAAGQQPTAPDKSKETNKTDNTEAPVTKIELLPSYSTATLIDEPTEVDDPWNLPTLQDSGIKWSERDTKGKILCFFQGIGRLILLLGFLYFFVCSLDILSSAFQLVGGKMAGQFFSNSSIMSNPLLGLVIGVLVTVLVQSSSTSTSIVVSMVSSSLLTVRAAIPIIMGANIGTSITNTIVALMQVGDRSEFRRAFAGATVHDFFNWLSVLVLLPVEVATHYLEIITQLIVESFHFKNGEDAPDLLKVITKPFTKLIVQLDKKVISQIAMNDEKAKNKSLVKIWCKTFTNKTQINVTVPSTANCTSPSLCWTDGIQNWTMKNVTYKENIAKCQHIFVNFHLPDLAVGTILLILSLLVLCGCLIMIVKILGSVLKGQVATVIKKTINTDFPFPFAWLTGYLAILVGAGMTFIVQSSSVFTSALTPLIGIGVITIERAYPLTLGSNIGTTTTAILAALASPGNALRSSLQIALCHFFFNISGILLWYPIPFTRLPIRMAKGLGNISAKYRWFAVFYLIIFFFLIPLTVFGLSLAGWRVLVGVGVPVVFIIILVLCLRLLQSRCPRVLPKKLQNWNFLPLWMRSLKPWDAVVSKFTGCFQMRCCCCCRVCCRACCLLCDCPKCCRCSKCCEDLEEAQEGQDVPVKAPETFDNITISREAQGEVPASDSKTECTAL
Procedure, shortened: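 Uptake of ³³PO4 was measured by scintillation counting after ice-cold buffer A washes. Cells were CHO stably expressing human NaPi-IIb, seeded overnight, and exposed to ³³PO4 in buffer A at room temperature.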

human PiT-1 = target: T2, human PiT-1 (Homo sapiens, UniProt Q8WUM9); assay: Inhibitory effect on 33PO4 uptake into human PiT-1-expressing CHO cells; details: compound 0.24, 1.2, 6 or 30 μM, pH 6.5, read-out: IC50 against 33PO4 uptake into human PiT-1-expressing cells
T2 construct: expressed in transfected cells; host or cells: CHO cells
T2 sequence (Q8WUM9 1-679): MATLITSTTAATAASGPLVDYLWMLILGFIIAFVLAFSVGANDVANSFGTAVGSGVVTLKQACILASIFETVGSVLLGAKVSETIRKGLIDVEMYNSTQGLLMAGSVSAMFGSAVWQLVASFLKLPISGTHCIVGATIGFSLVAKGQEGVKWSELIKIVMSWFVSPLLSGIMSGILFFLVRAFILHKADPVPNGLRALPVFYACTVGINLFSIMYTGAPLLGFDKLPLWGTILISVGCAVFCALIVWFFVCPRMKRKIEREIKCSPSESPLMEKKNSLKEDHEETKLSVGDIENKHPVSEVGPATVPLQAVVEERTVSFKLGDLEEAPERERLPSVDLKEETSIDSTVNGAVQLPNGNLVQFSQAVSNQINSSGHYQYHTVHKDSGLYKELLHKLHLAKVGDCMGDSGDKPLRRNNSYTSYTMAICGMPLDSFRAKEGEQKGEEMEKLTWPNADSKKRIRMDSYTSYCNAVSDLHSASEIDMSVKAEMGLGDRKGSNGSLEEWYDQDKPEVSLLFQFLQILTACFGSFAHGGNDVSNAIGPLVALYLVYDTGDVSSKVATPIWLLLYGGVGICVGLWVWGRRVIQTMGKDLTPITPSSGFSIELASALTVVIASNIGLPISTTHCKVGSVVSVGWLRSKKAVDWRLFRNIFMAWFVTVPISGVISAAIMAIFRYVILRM
Protocol: Test Example 3: Inhibitory Effect on ^33PO4 Uptake into Human PiT-1-Expressing Cell
(§1) CHO cells were transfected with human PiT-1 expression plasmids or empty vectors to prepare human PiT-1-expressing cells and empty vector-expressing cells. The human PiT-1-expressing cells or the empty vector-expressing cells were inoculated to a 96-well plate and incubated overnight in a CO2 incubator. […] After a given time, a 1/20 volume of buffer A containing ^33PO4 was added thereto and reacted at room temperature. After washing with ice-cold buffer A, a liquid scintillator was added to each reaction mixture, and the amount of ^33PO4 uptake was measured using TopCount. The rate of inhibition was determined according to the following expression: Rate (%) of inhibition=(1−(Amount of ^33PO4 uptake in the compound-supplemented well containing the human PiT-1-expressing cells−Amount of ^33PO4 uptake in the compound-supplemented well containing the empty vector-expressing cells)/(Amount of ^33PO4 uptake in the DMSO-supplemented well containing the human PiT-1-expressing cells −Amount of ^33PO4 uptake in the DMSO-supplemented well containing the empty vector-expressing cells))×100

human PiT-2 = target: T3, human PiT-2 (Homo sapiens, UniProt Q08357); assay: Inhibitory effect on 33PO4 uptake into human PiT-2-expressing CHO cells; details: pH 6.5, read-out: IC50 against 33PO4 uptake into human PiT-2-expressing cells
T3 construct: expressed in transfected cells; host or cells: CHO cells
T3 sequence (Q08357 1-652): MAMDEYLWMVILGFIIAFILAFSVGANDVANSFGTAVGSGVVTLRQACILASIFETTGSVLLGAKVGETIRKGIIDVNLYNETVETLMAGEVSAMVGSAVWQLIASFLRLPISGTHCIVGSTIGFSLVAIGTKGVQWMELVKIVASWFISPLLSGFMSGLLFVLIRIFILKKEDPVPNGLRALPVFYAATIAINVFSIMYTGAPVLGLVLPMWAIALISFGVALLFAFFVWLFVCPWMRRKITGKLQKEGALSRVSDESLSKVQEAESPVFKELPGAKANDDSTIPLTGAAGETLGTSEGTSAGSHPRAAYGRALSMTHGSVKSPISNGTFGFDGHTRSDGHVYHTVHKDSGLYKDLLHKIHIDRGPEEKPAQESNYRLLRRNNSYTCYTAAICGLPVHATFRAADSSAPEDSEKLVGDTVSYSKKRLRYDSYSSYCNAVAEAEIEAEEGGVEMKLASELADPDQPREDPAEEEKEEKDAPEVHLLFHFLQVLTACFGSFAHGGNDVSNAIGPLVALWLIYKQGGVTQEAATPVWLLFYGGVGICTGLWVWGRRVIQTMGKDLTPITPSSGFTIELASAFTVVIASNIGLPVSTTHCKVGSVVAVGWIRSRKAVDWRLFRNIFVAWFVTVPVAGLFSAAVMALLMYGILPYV
Protocol: Test Example 4: Inhibitory Effect on ^33PO4 Uptake into Human PiT-2-Expressing Cell
as §1, with “PiT-2” for “PiT-1”, “PiT-2-expressing” for “PiT-1-expressing”

Row | SMILES | pIC50 (human NaPi-IIb) | pIC50 (human PiT-1) | pIC50 (human PiT-2)
1 | COCCN(C)CCOc1ccc(CN2C(=O)C(C(=O)Nc3ccc(C(F)(F)F)cc3-c3cc(C(F)(F)F)ncn3)=C(O)C3(CCC3)N2C)c(F)c1F [Example 13, 6-[[2,3-Difluoro-4-[2-[2-methoxyethyl(methyl)amino]ethoxy]phenyl]methyl]-9-hydroxy-5-methyl-7-oxo-N-[4-(trifluoromethyl)-2-[6-(trifluoromethyl)pyrimidin-4-yl]phenyl]-5,6-diazaspiro[3.5]non-8-ene-8-carboxamide] | 5.14 | 5.72 | 5.57
2 | Cc1c(C#N)ncnc1-c1cc(C(F)(F)F)ccc1NC(=O)C1=C(O)[C@@]2(C)CCCN2N(Cc2ccc(OCCN3CCOCC3)c(F)c2F)C1=O [Example 22, (4aR)-N-[2-(6-Cyano-5-methylpyrimidin-4-yl)-4-(trifluoromethyl)phenyl]-1-[[2,3-difluoro-4-(2-morpholin-4-ylethoxy)phenyl]methyl]-4-hydroxy-4a-methyl-2-oxo-6,7-dihydro-5H-pyrrolo [1,2-b]pyridazine-3-carboxamide] | 5.10 | – | 5.49
3 | C[C@]12CCCN1N(Cc1ccc(C#CCCCC(=O)O)c(F)c1F)C(=O)C(C(=O)Nc1ccc(C(F)(F)F)cc1-c1cc(C(F)(F)F)ncn1)=C2O [Example 129, 6-[4-[[(4aR)-4-Hydroxy-4a-methyl-2-oxo-3-[[4-(trifluoromethyl)-2-[6-(trifluoromethyl)pyrimidin-4-yl]phenyl]carbamoyl]-6,7-dihydro-5H-pyrrolo[1,2-b]pyridazin-1-yl]methyl]-2,3-difluorophenyl]hex-5-ynoic acid] | 4.86 | 5.19 | 5.06
4 | C[C@]12CCCN1N(Cc1ccc(C#CCN3CCOCC3)c(F)c1F)C(=O)C(C(=O)Nc1ccc(C(F)(F)F)cc1-c1ccc(C(F)(F)F)nc1)=C2O [Example 140, (4aR)-1-[[2,3-Difluoro-4-(3-morpholin-4-ylprop-1-ynyl)phenyl]methyl]-4-hydroxy-4a-methyl-2-oxo-N-[4-(trifluoromethyl)-2-[6-(tri-fluoromethyl)pyridin-3-yl]phenyl]-6,7-dihydro-5H-pyrrolo[1,2-b]pyridazine-3-carboxamide] | 4.79 | 5.42 | 5.42
5 | C[C@]12CCCN1N(Cc1ccc(OCCCOC[C@H](O)CO)c(F)c1F)C(=O)C(C(=O)Nc1ccc(C(F)(F)F)cc1-c1ccc(C(F)(F)F)nc1)=C2O [Example 147, (4aR)-1-[[4-[3-[(2R)-2,3-Dihydroxypropoxy)propoxy]-2,3-difluorophenyl]methyl]-4-hydroxy-4a-methyl-2-oxo-N-[4-(trifluoromethyl)-2-[6-(trifluoromethyl)pyridin-3-yl]phenyl]-6,7-dihydro-5H-pyrrolo [1,2-b]pyridazine-3-carboxamide] | 4.67 | 5.36 | 5.08
6 | C[C@]12CCCN1N(Cc1ccc(OCCCCOC[C@H](O)CO)c(F)c1F)C(=O)C(C(=O)Nc1ccc(C(F)(F)F)cc1-c1cc(C(F)(F)F)ncn1)=C2O [Example 152, (4aR)-1-[[4-[4-[(2R)-2,3-Dihydroxypropoxy]butoxy]-2,3-difluorophenyl]methyl]-4-hydroxy-4a-methyl-2-oxo-N-[4-(trifluoromethyl)-2-[6-(trifluoromethyl)pyrimidin-4-yl]phenyl]-6,7-dihydro-5H-pyrrolo [1,2-b]pyridazine-3-carboxamide] | 4.69 | 5.28 | 5.46
7 | C[C@]12CCCN1N(Cc1ccc(OCCCCCCOC[C@H](O)CO)c(F)c1F)C(=O)C(C(=O)Nc1cnc(C(F)(F)F)nc1-c1ccc(C(F)(F)F)nc1)=C2O [Example 156, (4aR)-1-[[4-[6-[(2R)-2,3-Dihydroxypropoxy]hexoxy]-2,3-difluorophenyl]methyl]-4-hydroxy-4a-methyl-2-oxo-N-[2-(trifluoromethyl)-4-[6-(trifluoromethyl)pyridin-3-yl]pyrimidin-5-yl]-6,7-dihydro-5H-pyrrolo[1,2-b]pyridazine-3-carboxamide] | 5.49 | 5.41 | 5.14
